Bridge positions count the residues as written; N and C are the ends. Square brackets hold non-standard residues; d marks the D form. Ends that are not written are not given here.
What was measured:
D-VEGF [1] = experiment: SPR affinity measurements of GB1 peptidic compounds on immobilized D-VEGF; type: binding; conditions: target D-VEGF
Description: VEGF binding compounds were expressed. Binding affinities were measured using the […] SPR system. SPR analysis was performed on a ProteOn XPR36 Protein Interaction Array System (BioRad). Chemically synthesized L-VEGF, D-VEGF and VEGF165 (Peprotech) were immobilized in 50 mM Sodium Acetate (pH 5.5) to a non-dilute EDAC/sulfo-NHS activated GLC surface on separate channels using a flow rate of […] for 5 minutes in the vertical direction. Immobilization levels were monitored to ensure immobilization of approximately 500 response units of each protein. The domains were then stabilized with PBS for 30 seconds and 0.85% H3PO4 for 18 seconds each at […]. GB1 variants were diluted in PBS plus 0.05% Tween 20 at a starting concentration of 200 nM. The binders were further diluted with PBST 2-fold in series to produce 5 concentrations of variants. A PBST blank was also included. GB1 variant injection parameters were: […], 60 seconds contact time, and 600 seconds dissociation time, in the horizontal direction. VEGF proteins were regenerated with an injection of 0.85% H3PO4 at a flow rate of […] followed by a PBST wash of 30 seconds at […] flow rate.

D-VEGF [2] = experiment: Competition assay (phage ELISA) with VEGF binding peptides v114 and v128a on D-VEGF; conditions: 100 μM peptide; anti-M13-HRP detection
Description: (§1) To test whether the D-VEGF and L-VEGF binders have the potential to block VEGF-VEGFR1 interaction, a competition assay was performed using VEGF binding peptides v114 and v128a described by Fairbrother et al. (“Novel peptides selected to bind vascular endothelial growth factor target the receptor-binding site,” Biochemistry, 1998, 37, 17754-64). These peptides block the binding of VEGF to VEGFR1 and inhibit angiogenesis.
(§2) The peptides v114 ([…]-NH2; SEQ ID NO:296) and v128a ([…]-NH2; SEQ ID NO:297) were prepared in both D- and L-forms (CSBio, Inc.). The following protocol was used in the competitive binding assays: • 1. 5 wells of NUNC 96 well maxisorb plate were coated with D-VEGF (5 μg/ml in PBS) for testing clone E01. Similarly 5 wells were coated with L-VEGF (5 μg/ml in PBS) for each of E01 and B03. The plate was incubated at room temperature with gentle shaking for 2 hours; • 2. The plates were blocked with PBS+0.2% BSA (5 wells+1 extra well for control) for 1 hr at room temperature with gentle shaking; • 3. In the meantime, peptides were diluted in PBT buffer to a concentration of 150 μM; • 4. The plate was washed four times with PT buffer; • 5. 66 μl of each diluted peptide was added to 4 different wells coated with L or D-VEGF (depending on the clone tested). 66 μl of PBT was added to control wells (1 VEGF coated well+1 control well). Incubate for 30 min at room temperature with shaking; • 6. Add 33 μl of fresh phage supernatant from overnight culture to each of the six wells containing peptide solution. Incubate for 15 min at room temperature with shaking. • 7. Wash plate 6 times with PT buffer; • 8. Add 66 μl of anti-M13-HRP antibody (1:3000 dilution in PBT) to each well and incubate for 30 min at room temperature with shaking; • 9. Wash plate 4 times with PT buffer. Develop and read plates at 450 nm.
Phage binding to L and D-VEGF was tested in the presence and absence of 100 μM of each peptide (e.g., at 100 times affinity to saturate VEGF) using anti-M13-HRP to detect the bound phage.

[3] = Melting temperature (Tm) by circular dichroism (CD); type: physicochemical; conditions: chemically synthesized compound; CD spectroscopy
Description: 4.3 Determination of Melting Temperature (Tm) by Circular Dichroism (CD)

D-VEGF [4] = experiment: Phage ELISA after overnight incubation with GuHCl or urea; type: binding; conditions: various concentrations of urea or GuHCl; phage incubated overnight
Description: During screening for specific binding to target, the presence of a chaotropic agent/denaturant can help select clones with improved stability and affinity. Phage were incubated overnight in the presence of various concentrations of GuHCl and urea and assayed using an ELISA method. […] Various concentrations GuHCl were added to selection wells prior to elution with 100 mM HCl. The selected clones were identified by competitive ELISA and analyzed for IC50 using similar protocols to those described above.

L-VEGF = molecular target: T1, L-VEGF (Homo sapiens, UniProt P15692); experiment: Competition assay (phage ELISA) with VEGF binding peptides v114 and v128a on L-VEGF; conditions: 100 μM peptide; anti-M13-HRP detection
T1 construct: Synthetic L-VEGF-A (8-109) was folded under the following conditions; made in house; host or cells: total chemical synthesis (SPPS plus native chemical ligation), no expression host
T1 sequence (P15692 214-315): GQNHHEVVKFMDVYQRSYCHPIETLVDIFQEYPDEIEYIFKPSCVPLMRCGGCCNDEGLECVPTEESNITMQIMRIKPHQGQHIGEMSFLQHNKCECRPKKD
Description: as §1
as §2, with “Incubate for 30 min at room temperature with shaking; • 6. Add 33 μl of fresh phage supernatant from overnight culture to each of the six wells containing peptide solution. Incubate for 15 min at room temperature with shaking. • 7. Wash plate 6 times with PT buffer; • 8. Add 66 μl of anti-M13-HRP antibody (1:3000 dilution in PBT) to each well and incubate for 30 min at room temperature with shaking; • 9. Wash plate 4 times with PT buffer.” left out, “nm. […]” for “nm.”

[5] = Table 2, GB1-E01 double mutants

E01: pre-affinity matured parent D-VEGF binding GB1 clone, SEQ ID NO:79 (TYKLILNGKTLKGETTTEAVDVYDAFDVFFVYAASNFSDFDDWTYDDATKTFTVTE) [Clone E01]
Kd (D-VEGF [1]; Table 1): 13.4 nM | Koff (D-VEGF [1]; Table 1): 0.00347 s⁻¹ | Kon (D-VEGF [1]; Table 1, E01 point mutants expressed in E. coli): 260000 M⁻¹ s⁻¹ | Kd (D-VEGF [1]; [5]): 3.46 nM | Koff (D-VEGF [1]; [5]): 0.00117 s⁻¹ | Kon (D-VEGF [1]; [5]): 338000 M⁻¹ s⁻¹ | phage binding to D-VEGF in the presence of D-v114 (D-VEGF [2]): completely blocked | phage binding to D-VEGF in the presence of D-v128a (D-VEGF [2]): partially blocked | phage binding to D-VEGF in the presence of L-peptides (L-v114, L-v128a) (D-VEGF [2]): do not inhibit

TYKMILNGKTLKSECTTEAVDLFDAFDVLFVCAASNFSFIDDWTYDDATKTFTVTE ([dT][dY][dK][dM][dI][dL][dN]G[dK][dT][dL][dK][dS][dE][dC][dT][dT][dE][dA][dV][dD][dL][dF][dD][dA][dF][dD][dV][dL][dF][dV][dC][dA][dA][dS][dN][dF][dS][dF][dI][dD][dD][dW][dT][dY][dD][dD][dA][dT][dK][dT][dF][dT][dV][dT][dE]; disulfide 15-32 (inferred); not fully specified) [RFX002]
melting temperature (Tm) [3]: 66.9 °C | binding to D-VEGF in presence of denaturant (D-VEGF [4]): bind specifically

TYKLILNGKTLKGETTTEAVDFYYAFSVFFSYASSNSSDYVSWTYDDATKTFTVTE [Clone B03]
phage binding to L-VEGF in the presence of D-peptides (D-v114, D-v128a) (L-VEGF): do not inhibit

TYKLILNGKTLKGEFTLEAVDLFDAFDVFFVYAASNFSFFDDWTYDDATKTFTVTE ([dT][dY][dK][dL][dI][dL][dN]G[dK][dT][dL][dK]G[dE][dF][dT][dL][dE][dA][dV][dD][dL][dF][dD][dA][dF][dD][dV][dF][dF][dV][dY][dA][dA][dS][dN][dF][dS][dF][dF][dD][dD][dW][dT][dY][dD][dD][dA][dT][dK][dT][dF][dT][dV][dT][dE]; not fully specified) [RFX025]
melting temperature (Tm) [3]: 66.6 °C | binding to D-VEGF in presence of denaturant (D-VEGF [4]): bind specifically

Source: patent publication US20120178682A1, “GB1 Peptidic Compounds and Methods for Making and Using the Same” (priority 2010, published 2012)
